Here are results for two compounds from patent US8673910B2, “Proteasome inhibitors for selectively inducing apoptosis in cancer cells” (H. Lee Moffitt Cancer Center and Research Institute, priority 2008, dated 2014).

Assay [1] concerns the target T1, trypsin-like (T-L) activity of purified 20S rabbit proteasome (Oryctolagus cuniculus, UniProt G1SWK8).
T1 construct: purchased Boston Biochem
Briefly: Proteolytic activity of purified 20S proteasome, fluorogenic substrate Bz-Val-Gly-Arg-AMC. Format: biochemical. The following applies: Table 4: means of 3 experiments ± standard error, read-out: IC50 for T-L activity in vitro. Here is the method: (§1) In the high-throughput screen, the inventors used fluorogenic peptides as substrates to assay 3,229 compounds of the NCI Diversity, Natural Product, Challenge and Mechanistic Sets for inhibitory activity against the proteolytic activities of the purified 20S proteasome, resulting in the identification of PI-083. […] After incubation, production of hydrolyzed 7-amido-4-methyl-coumarin (AMC) groups was measured using a WALLAC Victor^2 1420 Multilabel Counter with an excitation filter of 355 nm and an emission filter of 460 nm (Perkin Elmer Life Sciences, Turku, Finland).

Assay [2] has as its target T2, chymotrypsin-like (CT-L) activity of purified 20S rabbit proteasome (Oryctolagus cuniculus, UniProt G1T4Q9).
T2 sequence (G1T4Q9 1-263): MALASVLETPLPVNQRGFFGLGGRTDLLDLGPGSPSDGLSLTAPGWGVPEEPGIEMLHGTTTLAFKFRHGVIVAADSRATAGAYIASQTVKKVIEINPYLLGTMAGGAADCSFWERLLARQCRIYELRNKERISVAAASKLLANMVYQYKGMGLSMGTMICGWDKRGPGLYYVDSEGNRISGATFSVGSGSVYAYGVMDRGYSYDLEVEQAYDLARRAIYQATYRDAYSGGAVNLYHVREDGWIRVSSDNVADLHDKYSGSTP
The experiment in a line: Proteolytic activity of purified 20S proteasome, fluorogenic substrate Suc-Leu-Leu-Val-Tyr-AMC. Format: biochemical.
Experimental: The inhibitory activity of the compounds was calculated based on vehicle control). This technique monitors the hydrolytic release of a coumarin species from a synthetic peptide substrate.
The assay was conducted by using a fluorogenic peptide as substrate to test synthesized compounds for inhibitory activity against the chymotrypsin-like activity of the purified rabbit 20S proteasome. Briefly, 70 ng of purified 20S proteasome was incubated with 20 μM Suc-Leu-Leu-Val-Tyr-AMC for 1 hour at 37° C. in 100 μl of assay buffer (50 mM Tris-HCl, pH 7.6) with or without inhibitors. After incubation, production of hydrolyzed 7-amido-4-methyl-coumarin (AMC) was measured using a WALLAC Victor2 1420 Multilabel Counter with an excitation filter of 355 nm and an emission filter of 460 nm (Perkin Elmer Life Sciences, Turku, Finland). The inhibitory activity of the compounds was calculated based on vehicle control.

For assay [3], the system named is CT-L activity of rabbit 20S proteasome. The experiment in a line: Dialysis using purified rabbit 20S proteasome. The following applies: compound 10 μM, 30 min pre-incubation at 37° C. Format: biochemical. As for the experimental part:
To measure the effect of dialysis on CT-L activity, compounds (10 μM) or vehicle (0.1% DMSO) were added to rabbit 20S proteasome (225 ng) (Boston Biochem) in proteasome assay buffer (50 mM Tris-HCl, pH 7.6) and incubated at 37° C. for 30 min. After 30 min of incubation, proteasome-compound mixtures were added to 10,000 MWCO Thermo Scientific Slide-A-Lyzer Dialysis Cassette (Rockford, Ill.) and dialyzed against proteasome assay buffer. Immediately (t=0) and 0.5 h, 1 h, 2 h, 4 h, and 18 h of dialysis at 4° C., samples were removed from the dialysis cassette and the CT-L 20S proteasome activity was determined. Proteasome activity was normalized against proteasome activity of DMSO control.

Assay [4] relates to MCF-7 breast cancer cells. The experiment in a line: MTT metabolism assay. The format is cell-based, human. The following applies: Homo sapiens. As for the experimental part: Cells were plated in 96-well plates in 100 μl medium and allowed to attach overnight. […] Media was aspirated after 24 or 72 hours and replaced with 100 μl complete media containing 1 mg/ml MTT and incubated for three hours at 37° C. in 5% CO2 humidified incubator. Media was then aspirated and DMSO was added. Cells were incubated for 10 min at room temperature while shaking, and the absorbance was determined at 540 nm using a μQuant spectrophotometric plate reader (Bio-TEK, Winooski, Vt.).
Cells were plated in 96-well plates in 100 μl medium and allowed to attach overnight. Cells were then incubated for 72 h with varying concentrations of PI-083, YG1-080, YG1-075, HL2-090-2, HL2-090-4, HL2-090-6, and HL2-090-9 or vehicle control (DMSO). Media was aspirated and replaced with 100 μl complete media containing 1 mg/ml MTT and incubated for three hours at 37° C. in 5% CO2 humidified incubator. Media was then aspirated and DMSO was added. Cells were incubated for 10 min at room temperature while shaking, and the absorbance was determined at 540 nm using a μQuant spectrophotometric plate reader (Bio-TEK, Winooski, Vt.).

Assay [5] addresses T3, PGPH activity of purified 20S rabbit proteasome (Oryctolagus cuniculus, UniProt A0A5F9DQW2).
T3 construct: purchased Boston Biochem
The experiment in a line: Proteolytic activity of purified 20S proteasome, fluorogenic substrate Z-Leu-Leu-Glu-AMC. The format is biochemical. The following applies: Table 4: means of 3 experiments ± standard error, read-out: IC50 for PGPH-like activity in vitro. As for the experimental part:
as §1

In assay [6] the test system is MCF-7/MCF-10A, T-80-Hras/T-80, C7-Kras/C7 cells. The experiment in a line: TUNEL assay, apoptosis in cancer and non-transformed cell pairs. The format is cell-based, human. The following applies: 3 pairs of cell lines, 24 h. As for the experimental part:
Terminal deoxynucleotidyl transferase-mediated nick-end labeling (TUNEL) was used to determine the extent of DNA strand breaks (Kazi et al., 2004). The assay was performed with the APO-Direct Kit following the manufacturer's instructions. In brief, the harvested cells were fixed in 1% paraformaldehyde for 45 minutes on ice, washed twice with PBS, and then fixed again in 70% ethanol at −20° C. overnight. The cells were then incubated in DNA labeling solution (containing terminal deoxynucleotidyl transferase (TdT) enzyme, fluorescence-conjugated dUTP and reaction buffer) for 60 minutes at 37° C. After rinsing the cells to remove the DNA labeling solution, the cells were incubated with the propidium iodide/RNase A solution, incubated for 30 minutes at room temperature in the dark, and analyzed by flow cytometry within 3 hours of staining.

Assay [7] deals with p27^Kip1 protein in A549 tumors. Briefly: Western blot of p27Kip1 in A549 tumor lysates. The format is in vivo. The following applies: A549-bearing nude mice. Here is the method:
(§2) Cell lysates (50 μg) were separated by SDS-PAGE and transferred to a nitrocellulose membrane, probed with p27^Kip1 and β-actin antibodies, and signals were visualized by enhanced chemoluminescence (ECL, Amersham, Piscataway, N.J.) according to the manufacturer's protocol.

The subject of assay [8] is p27^Kip1 levels in A549 lung cancer cells. Briefly: Western blot of p27Kip1 in cultured A549 cells. Format: cell-based, human. The following applies: 48 h treatment. Here is the method: as §2
(Immunoblotting shows a protein as a band on a membrane.)

The subject of assay [9] is primary multiple myeloma cells isolated from patients' bone marrow. The experiment in a line: Cell death of primary multiple myeloma cells (Trypan blue). The format is cell-based, human. The following applies: read-out: Cell death 24 h (IC50 values); primary MM cells, 24 h treatment; Table 5: one value per patient; mean over patients. Here is the method:
MM patients' bone marrow samples were collected from Liquid Tissue Bank facility. Freshly isolated bone marrow samples were fractionated by Ficoll-Paque (Pharmacia Biotech, Piscataway, N.J.) sedimentation. The mononuclear cellular layer was then resuspended in RPMI-1640 containing 10% heat-inactivated fetal bovine serum, 10 mM HEPES (pH 7.4), sodium pyruvate, L-glutamine, and 1% penicillin-streptomycin.
Adherent cells were harvested using trypsinization and pooled with suspension cells from media supernatant by pelleting at 300 g for 5 min at 4° C. The cells were then resuspended in an appropriate volume of media by pipetting gently up and down. Two 20 μl aliquots were removed and combined with an equal volume of 0.4% Trypan blue and allowed to mix for 1 minute. A 10 μl volume was loaded onto a hemacytometer and cells were scored as live or dead based on Trypan blue dye exclusion and the percentage of dead cell number to total cell number was calculated. To calculate the percentage of proliferation, the number of live cells in the treated samples was divided by the number of live cells in the untreated vehicle control.

Setting [10] is: MCF7, 24 h, MCF-7, 24 h, mean ± SD of 3 to 5 experiments, read-out: IC50 for cell viability measured by MTT assay.
The mark [11] stands for this setting: MCF7, 72 h, MCF-7, 72 h, mean ± SD of 3 to 5 experiments (Table 3), read-out: IC50 for cell viability measured by MTT assay.

Where “and” joins values, the source holds several entries; their conditions need not be identical. Equal entries are not always repeated. Where two headings read alike, the source gives them in different places. Bounds are passed on as bounds.

T3 sequence (A0A5F9DQW2 1-212): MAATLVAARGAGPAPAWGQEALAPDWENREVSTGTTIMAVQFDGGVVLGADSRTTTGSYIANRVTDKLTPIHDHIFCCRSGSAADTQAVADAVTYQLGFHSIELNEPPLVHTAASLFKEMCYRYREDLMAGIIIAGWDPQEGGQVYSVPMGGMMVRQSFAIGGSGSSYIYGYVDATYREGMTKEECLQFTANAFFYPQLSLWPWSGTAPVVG
T1 sequence (G1SWK8 1-271): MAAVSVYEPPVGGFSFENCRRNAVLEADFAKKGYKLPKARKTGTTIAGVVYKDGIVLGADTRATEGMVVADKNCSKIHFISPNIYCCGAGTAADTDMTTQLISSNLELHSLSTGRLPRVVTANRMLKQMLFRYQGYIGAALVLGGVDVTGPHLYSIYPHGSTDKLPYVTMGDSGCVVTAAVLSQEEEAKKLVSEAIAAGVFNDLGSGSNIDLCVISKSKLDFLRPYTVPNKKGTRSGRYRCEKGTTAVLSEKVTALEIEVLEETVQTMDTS

By IC50 is commonly meant the concentration at which inhibition is half-maximal. As for `CC(C)C[C@H](NC(=O)[C@H](Cc1ccccc1)NC(=O)c1cnccn1)B(O)O` [Bortezomib, reference compound], the IC50 in assay [1] is 7020 nM; in [4] (setting [10]), over 30000 nM; in assay [4] (setting [11]) it was 8600 ± 1410 nM; in assay [5], 475 nM. Further, in assay [2] (CT-L inhibition), the “difference in potency between bortezomib and PI-083” value is 100 fold. Besides, the “inhibition of CT-L activity of the 20S proteasome in the absence of dialysis” value in assay [3] is 99%. Moreover, the “apoptosis (TUNEL)” value in [6] was “induced little apoptosis in any of the cell lines”. Besides, the “treated tumors with dramatic upregulation of p27^Kip1 protein” value in [7] is 4 out of 4. For the same compound, the “p27^Kip1 levels in cultured A549 lung cancer cells” value in [8] is on record as “marked increase”.
As for `O=C1C(Cl)=C(Nc2ccc(S(=O)(=O)Nc3ccccn3)cc2)C(=O)c2ccccc21` [PI-083, 4-(3-chloro-1,4-dioxo-1,4-dihydronaphthalen-2-ylamino)-N-(pyridin-2-yl)benzenesulfonamide], the IC50 in assay [2] (PI-083 derivatives (Table 7, naphthoquinone library), purified rabbit 20S proteasome, read-out: IC50 (μM) Chymotrypsin-like activity) was 1.2 ± 1 µM; in [2] (purified 20S rabbit proteasome, Table 4: means of 3 experiments ± standard error, read-out: IC50 for CT-L activity in vitro), 1 µM; in assay [9], 6200 nM and 2700 nM and 1100 nM and 2400 nM and 1700 nM and 4100 nM and 9000 nM and 7300 nM and 3200 nM; in assay [4] (setting [10]) it was 4500 ± 820 nM; in assay [4] (MCF7, 72 h, MCF-7, 72 h (Table 6), read-out: IC50 for cell viability measured by MTT assay in MCF-7 human breast cancer cells), 2310 ± 100 nM; in [4] (setting [11]), 2200 ± 1100 nM.
